Laboratory results taken from article PMC3914932, “Automated NMR Fragment Based Screening Identified a Novel Interface Blocker to the LARG/RhoA Complex” (PLoS ONE, 2014).

Target: T1, RhoA (Homo sapiens, UniProt P61586)
T1 construct: residues 1–193
Test: […] HSQC chemical shift perturbation titration; also STD and WaterLOGSY fragment screening
Type: binding

T1 sequence (P61586 whole entry, the tested form may be a part): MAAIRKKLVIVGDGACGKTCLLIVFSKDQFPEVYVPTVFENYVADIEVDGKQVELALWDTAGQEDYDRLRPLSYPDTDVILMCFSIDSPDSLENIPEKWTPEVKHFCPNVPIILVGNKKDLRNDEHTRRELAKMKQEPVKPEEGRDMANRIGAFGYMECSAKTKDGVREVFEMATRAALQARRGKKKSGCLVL

Compound: c1ccc(COC2CNC2)cc1 [R1]
- Kd: 110 µM
